Where two headings read alike, the source gives them in different places.
Tests used:
[1] = system: K1 strain of P. falciparum; assay: Antiplasmodial [3H]-hypoxanthine incorporation assay; type: cell-based, Plasmodium falciparum; conditions: Plasmodium falciparum
Procedure: Plasmodium falciparum. Antiplasmodial activity was determined using the K1 strain of P. falciparum (resistant to chloroquine and pyrimethamine). A modification of the [3H]-hypoxanthine incorporation assay was used. Briefly, infected human red blood cells (final parasitaemia and haematocrit were 0.3% and 1.25%, respectively) in RPMI 1640 medium with 5% Albumax were exposed to serial drug dilutions in microtiter plates. After 48 hours of incubation at 37°C in a reduced oxygen atmosphere, 0.5 mCi 3H-hypoxanthine was added to each well. Cultures were incubated for a further 24 h before they were harvested onto glass-fiber filters and washed with distilled water. The radioactivity was counted using a BetaplateTM liquid scintillation counter (Wallac, Zurich, Switzerland). […] From the sigmoidal inhibition curves IC50 values were calculated. Assays were run in duplicate and repeated once.

[2] = system: Trypanosoma brucei rhodesiense STIB 900; assay: In vitro activity against T. brucei rhodesiense bloodstream forms (Alamar blue); type: cell-based; conditions: Trypanosoma brucei, 72 h, bloodstream forms STIB 900, 72 h; mean of two independent measurements; read-out: IC50 T. brucei rhodes. (Tbr)
Procedure: (§1) Trypanosoma brucei rhodesiense and cytotoxicity against L6 cells. Minimum Essential Medium with Earle’s salts (50 µL) supplemented with 0.2 mM 2-mercapto-ethanol, 1 mM Na-pyruvate and 15% heat-inactivated horse serum was added to each well of a 96-well microtiter plate. […] Then 10^4 bloodstream forms of Trypanosoma brucei rhodesiense STIB 900 in 50 µL of medium were added to each well and the plate incubated at 37°C under a 5% CO2 atmosphere for 72 hours. […] The plate was then read in a Spectramax Gemini XS microplate fluorometer (Molecular Devices Corporation, Sunnyvale, CA, USA) using an excitation wavelength of 536 nm and emission wavelength of 588 nm. Fluorescence development was measured and expressed as percentage of the control. Data were transferred into the graphic programme Softmax Pro (Molecular Devices) which calculated IC50 values. Cytotoxicity was assessed using a similar protocol and rat skeletal myoblasts (L6 cells). […] All following steps were according to the T. b. rhodesiense protocol.

[3] = system: Leishmania donovani amastigotes (strain MHOM/ET/67/L82); assay: L. donovani axenic amastigote assay (resazurin); type: cell-based; conditions: Leishmania donovani, pH 5.4, 72 h, mean of two independent measurements, read-out: IC50 L. donovani (Ldon)
Procedure: Leishmania donovani (axenic amastigote assay). […] Serial drug dilutions in duplicates were prepared covering a range from 30 to 0.041 µg/mL. […] The compounds used as positive controls in the various bioassays (see Table 1) were of commercial origin, with the exception of melarsoprol, which was a gift from WHO. Their purity (generally > 95%) was specified by the manufacturers.

[4] = system: T. cruzi Tulahuen strain C2C4; assay: In vitro activity against T. cruzi in L-6 host cells (beta-galactosidase/CPRG); type: cell-based, Trypanosoma cruzi; conditions: Trypanosoma cruzi, Tulahuen C2C4 in L-6 cells, 96 h, mean of two independent measurements, read-out: IC50 T. cruzi (Tcr)
Procedure: Trypanosoma cruzi. Rat skeletal myoblasts (L-6 cells) were seeded in 96-well microtiter plates at 2,000 cells/well in 100 µL RPMI 1640 medium with 10% FBS (fetal bovine serum) and 2 mM L-glutamine. After 24 hours the medium was removed and replaced by 100 µL per well containing 5,000 trypomastigote forms of T. cruzi Tulahuen strain C2C4 containing the β-galactosidase (Lac Z) gene. Fortyeight hours later the medium was removed from the wells and replaced by […] fresh medium with or without a serial drug dilution. Seven 3-fold dilutions were used covering a range from […]. Each drug was tested in duplicate. After 96 hours of incubation the plates were inspected under an inverted microscope to assure growth of the controls and sterility. Then the substrate CPRG/ Nonidet (50 µL) was added to all wells. A colour reaction developed within 2-6 hours and could be read photometrically at 540 nm.

[5] = Cytotoxicity against L6 cells (Alamar blue); conditions: rat; for IC50: IC50 Cytotoxicity (L6), L6 rat skeletal myoblasts, 72 h, mean of two independent measurements
Procedure: as §1

[6] = K1, K1 strain (resistant to chloroquine and pyrimethamine), mean of two independent measurements, read-out: IC50 P. falciparum (Pfc)
[7] = 72 h, pH 5.4, axenic amastigotes
[8] = L6 cells (rat skeletal myoblasts)
[9] = K1, read-out: IC50 P. falciparum (Pfc)

Compound	IC50 [1, 6]	IC50 [2]	IC50 [3, 7]	IC50 ([4]; TULAHUEN, L6, 96 h)	IC50 at 72 h [5, 8]	IC50 at 72 h [5]	IC50 [1, 9]	IC50 ([3]; axenic amastigotes)	IC50 ([4]; L6)	IC50 [5]
C=C1C(=O)OC2C=C(C)CCC3OC3(COC(C)=O)CC(OC(=O)C3(C)OC3C)C12 (stereo not shown) [Compound 37]	6.33 µM	0.478 µM	5.19 µM	15.8 µM	7.75 µM					
C=C1C(=O)OC2CC3(C)CCCC(C)C3=CC12 (stereo not shown) [Compound 29]	6.4 µM	2.62 µM	3.03 µM	8.3 µM		5.99 µM				
C=C1C(=O)OC2CC(C)C3C=CC(=O)C3(C)C(OC(=O)CC(C)C)C12 (stereo not shown) [Compound 4]		0.116 µM					0.822 µM	0.871 µM	2.48 µM	1.3 µM
C=C1C(=O)OC2CC3(C)CC(=O)CC(C)C3=CC12 (stereo not shown) [Compound 30]	10.7 µM	1.6 µM	8.7 µM	17.3 µM	10.2 µM					
CC1=CCCC2(C)OC2C2OC(=O)C(C)C2CC1 (stereo not shown) [Compound 35]	> 20 µM	49 µM	35.6 µM	> 120 µM	133 µM					
C=C1C(=O)OC2CC(C)C3C(O)CC(O)C3(C)CC12 (stereo not shown) [Compound 11]	12.1 µM	18.3 µM	20.6 µM	52.7 µM	31.9 µM					
C=C1C(=O)OC2CC(C)C3C(OC(C)=O)CC(O)C3(COC(C)=O)CC12 (stereo not shown) [Compound 16]	10.7 µM	13.6 µM	11.8 µM	44.9 µM	21.6 µM					
C=C(C(=O)OC1CC(C)=CCCC(CO)=CC2OC(=O)C(=C)C21)C(O)CO (stereo not shown) [Compound 33]	6.32 µM	1.3 µM	15.2 µM	16.8 µM	10.2 µM					
C=C1C(=O)OC2C=C(C)C(O)CC3OC3(C)CC(OC(=O)C(C)=CC)C12 (stereo not shown) [Compound 38]	8.81 µM	0.942 µM	18.2 µM	16.5 µM	13 µM					
CC(=O)OC1C2C(CC(C)C3C=CC(=O)C31C)OC(=O)C2C (stereo not shown) [Compound 6]		1.42 µM	> 4 µM	6.93 µM	3.06 µM					
C=C1C(=O)OC2CC(C)C3(O)C=C(C(C)=O)C4(CC3CC12)C(=O)OC1CC(C)C(C=CC(C)=O)=CCC14 (stereo not shown) [Compound 21]	4.96 µM	0.638 µM	22 µM	16.1 µM	9.43 µM					
C=C1C(=O)OC2CC(C)C3C(O)CC(O)C3(C)C(OC(=O)C(C)=CC)C12 (stereo not shown) [Compound 13]		19.2 µM					27.5 µM	14.5 µM	60.2 µM	31.8 µM
CC1CC2OC(=O)C(C)C2C(O)C2(C)C(=O)C=CC12 (stereo not shown) [Compound 5]		0.686 µM					3.05 µM	3.85 µM	21.5 µM	8.9 µM
O=C(Cn1ccnc1[N+](=O)[O-])NCc1ccccc1 [benznidazole, reference compound]				2 µM						
CCN(CC)CCCC(C)Nc1ccnc2cc(Cl)ccc12 (stereo not shown) [chloroquine, reference compound]							0.248 µM			
COc1cc([C@@H]2c3cc4c(cc3[C@H](O)[C@H]3COC(=O)[C@H]23)OCO4)cc(OC)c1OC [podophyllotoxin, reference compound]						0.012 µM				

— paper PMC6254286, “Quantitative Structure − Antiprotozoal Activity Relationships of Sesquiterpene Lactones ^†” (Molecules, 2009)
